Source: patent publication US20140171918A1, “USE OF A NOVEL SU[…]-FREE […] TO DELIVER TE[…] H[…]” (Bioject, Inc., priority 2012, published 2014)

Assays:
hypogonadal men [1] = assay: Visual/verbal analog pain scale after needle-free injection
Procedure: Each subject was given thorough instruction on performing self needle-free injections with the Zetaj et. […] Pharmacokinetic evaluation using testosterone levels were obtained at specified intervals. Secondary endpoints, both objective and subjective, included E2 levels, pain score diaries, and AMS scores obtained before and after one month of treatment. A dose confirmation strategy was conducted to achieve likelihood of valid dose.
From day 60-90, all subjects were verified to have cottonseed vehicle in the commercially available formulation via Watson Pharmaceutical.

hypogonadal men [2] = assay: Aging Male Score (AMS) questionnaire before and after treatment; type: in vivo, human
Text: AMS scoring was based on a rating of symptom severity ranging from no symptoms with the lowest score of 1 to severe symptoms with a […].

[3] = Pharmacokinetic evaluation using testosterone levels after needle-free (Zetajet) subcutaneous self-injection; type: in vivo, human
Text: The goal of the study is to determine if a needle-free injector can consistently deliver frequent administrations (daily or three times weekly) of testosterone in a safe and effective manner. To answer this specific question, the study was designed to determine the efficacy (defined as testosterone serum levels, wetness, pain, and clinical questionnaire) of the combined product (cross labeled) of needle-free injection of testosterone cypionate hypogonadal men. This includes both objective (testosterone free and total levels) and subjective (pain and clinical questionnaire).
On Jan. 26, 2013, IRBS approved a modification of the CP-445 study. Due to a clear efficacy and patient acceptance at day 30, an extension of the study was requested to follow the fourteen subject's testosterone levels at a less frequent dosing interval and increased dosage. There was no deviation to the protocol as originally designed for day 0-30. Nor was there any deviation to the conduct of the study to day 120. This modification allowed following subjects out to day 120 on a Monday, Wednesday, Friday dosing of 50 mg of testosterone cypionate. Only T levels at day 60 and 120 were assessed.

hypogonadal men [4] = assay: Adverse events, injection site reactions and wetness after needle-free injection; type: in vivo, human
Text: Of the 14 patients 9 recorded symptoms of redness, 5 symptoms of bruising and one an induration. None of these reactions required medical follow up or dissuaded any patient from discontinuing treatment. See section on Preference for additional data on patient preference and comparison of needle-Free injection methods to needle and syringe. FIG. 5 depicts post injection site reactions as a percentage of the total number of injections for 14 patients over a 30 day period.
Wetness at the injection site is believed to be attributed to moisture on the tip of the syringe prior to the injection per recommended technique. Wetness with visible moisture flow at the site of the injection is thought to result from improper injection technique and a lack of fluid pressure in the nozzle because of the technique. Results for wetness varied across all patients. FIG. 7 depicts cumulative wetness results by category as a percentage of total injections.

## C[C@]12CC[C@H]3[C@@H](CCC4=CC(=O)CC[C@@]43C)[C@@H]1CC[C@@H]2OC(=O)CCC1CCCC1 [testosterone cypionate]
Hypogonadal men [1]; five minutes after injection, scale 0-4, 25 mg daily needle-free injection
  verbal analog pain score, average: 0.54
Hypogonadal men [1]; five minutes after injection, scale 0-10, 25 mg daily needle-free injection in the abdomen
  visual analog pain score, average: 0.4
Hypogonadal men [1]; thirty minutes after injection, scale 0-4, 4 most painful
  verbal analog pain score: 0.26
Hypogonadal men [1]; thirty minutes after injection, scale 0-10, 10 most painful
  visual analog pain score: 0.14
Hypogonadal men [2]; after one month of 25 mg daily, baseline average 50 points, thirteen of fourteen men
  average AMS score after treatment: 25 points
Hypogonadal men [2]; after one month of treatment vs before
  average reduction in bothersome hypogonadal symptoms (AMS score): 50%
[3]; 25 mg daily Zetajet injection, 6 hours to day 30
  course of free and total testosterone levels: consistently rose from 6 hours to day 30
[3]; 25 mg daily Zetajet injection, day 30, four men
  average testosterone level of the men with supraphysiologic levels (above 975.0 ng/dl): 1203 ng/dl
[3]; 25 mg daily, from 8.76 ng/dl to 37.5 ng/dl
  increase of free testosterone levels: over four fold increase
[3]; QODWO 50 mg vs daily 25 mg
  average total testosterone levels of QODWO dosing lower than daily injections: 35%
[3]; QODWO dosing at 50 mg
  increase in testosterone levels: 3 fold
  supraphysiologic levels of testosterone: no men had supraphysiologic levels
[3]; QODWO dosing at 50 mg, men who completed the 120 day study extension
  men with normal testosterone levels: 11 out of 11
[3]; after 25 mg daily injection, baseline average 8.76 ng/dl
  average free testosterone level: 37.5 ng/dL
[3]; at two weeks, 25 mg daily
  men with normal testosterone levels (primary endpoint): 13/14
[3]; daily dosing regimen of 25 mg a day
  increase in average testosterone levels from baseline: over four fold increase
[3]; three formerly supraphysiologic subjects continued on QODWO regimen (50 mg), extended study
  average testosterone level after correction to the normal range: 519 ng/dL
Hypogonadal men [4]; 100 mg/ml and 200 mg/ml commercially available formulations
  allergic response or major bruising: No allergic response or major bruising
Hypogonadal men [4]; 14 patients over 30 days
  share of injections resulting in minor redness and bruising: a quarter
Hypogonadal men [4]; entire study (to day 120)
  severe adverse events: No severe adverse events
Hypogonadal men [4]; needle-free injection in hypogonadal men
  tolerability / safety in words: well tolerated
Hypogonadal men [4]; of the 14 patients, 30 days
  patients who recorded an induration: one
  patients who recorded symptoms of bruising: 5
  patients who recorded symptoms of redness: 9
